# Measured values taken from ChEMBL document CHEMBL1201862, “PubChem BioAssay data set” (2004).
#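 1) Cells in 96-well plates. 2) Compound, 48 h, 5 concentrations. 3) Linear interpolation between surrounding doses. 4) Unreached endpoint = highest concentration. GI50 is the concentration that inhibits growth by half.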 Activity calls are given as the source filed them. Rule as the data show it: active = GI50 up to about 1.1 µM and inactive = higher.
# Legend:
# Test in all cases: NCI-60 cell line screen, 48 h
# [1] = system: M14
# [2] = system: CCRF-CEM
# [3] = system: LXFL 529
# [4] = system: HCT-116
# [5] = system: DLD-1
# [6] = system: COLO 205
# [7] = system: UACC-62
# [8] = system: SF-268
# [9] = system: HL-60
# [10] = system: UO-31
# [11] = system: SK-OV-3
# [12] = system: DMS-273
# [13] = system: SNB-78
# [14] = system: IGROV-1
# [15] = system: HOP-92
# [16] = system: LOX IMVI
# [17] = system: SK-MEL-5
# [18] = system: NCI-H522
# [19] = system: NCI-H226
# [20] = system: EKVX
# [21] = system: KM-20L2
# [22] = system: SF-539
# [23] = system: RPMI-8226
# [24] = system: OVCAR-8
# [25] = system: SNB-19
# [26] = system: SK-MEL-28
# [27] = system: M19-MEL
# [28] = system: DMS-114
# [29] = system: OVCAR-3
# [30] = system: RXF 631
# [31] = system: SK-MEL-2
# [32] = system: Malme-3M
# [33] = system: SF-295
# [34] = system: NCI-H460
# [35] = system: HCT-15
# [36] = system: HT-29
# [37] = system: CAKI-1
# [38] = system: U-251
# [39] = system: TK-10
# [40] = system: ACHN
# [41] = system: SW-620
# [42] = system: A498
# [43] = system: K562
# [44] = system: HOP-18
# [45] = system: XF498
# [46] = system: NCI-H23
# [47] = system: SN12C
# [48] = system: OVCAR-5
# [49] = system: A549
# [50] = system: MOLT-4
# [51] = system: OVCAR-4
# [52] = system: RXF 393
# [53] = system: SNB-75
# [54] = system: 786-0
# [55] = system: UACC-257
# [56] = system: KM12
# [57] = system: HOP-62
# [58] = system: HCC 2998
# [59] = system: SR
smiles,measurement,setting,value
CCOc1ccc(/C(C=O)=C(\Cl)c2ccc(OC)c(OC)c2)cc1,GI50,[1],> 100 µM (inactive)
same,GI50,[2],> 100 µM (inactive)
same,GI50,[3],> 100 µM (inactive)
same,GI50,[4],> 100 µM (inactive)
same,GI50,[5],> 100 µM (inactive)
same,GI50,[6],> 100 µM (inactive)
same,GI50,[7],68.9 µM (inactive)
same,GI50,[8],42.6 µM (inactive)
same,GI50,[9],11.4 µM (inactive)
same,GI50,[10],> 100 µM (inactive)
same,GI50,[11],> 100 µM (inactive)
same,GI50,[12],> 100 µM (inactive)
same,GI50,[13],> 100 µM (inactive)
same,GI50,[14],> 100 µM (inactive)
same,GI50,[15],> 100 µM (inactive)
same,GI50,[16],> 100 µM (inactive)
same,GI50,[17],77.3 µM (inactive)
same,GI50,[18],> 100 µM (inactive)
same,GI50,[19],> 100 µM (inactive)
same,GI50,[20],> 100 µM (inactive)
same,GI50,[21],> 100 µM (inactive)
same,GI50,[22],83.2 µM (inactive)
same,GI50,[23],> 100 µM (inactive)
same,GI50,[24],> 100 µM (inactive)
same,GI50,[25],> 100 µM (inactive)
same,GI50,[26],> 100 µM (inactive)
same,GI50,[27],> 100 µM (inactive)
same,GI50,[28],> 100 µM (inactive)
same,GI50,[29],> 100 µM (inactive)
same,GI50,[30],> 100 µM (inactive)
same,GI50,[31],> 100 µM (inactive)
same,GI50,[32],> 100 µM (inactive)
same,GI50,[33],79.6 µM (inactive)
same,GI50,[34],> 100 µM (inactive)
same,GI50,[35],> 100 µM
same,GI50,[36],> 100 µM (inactive)
same,GI50,[37],> 100 µM (inactive)
same,GI50,[38],> 100 µM (inactive)
same,GI50,[39],> 100 µM (inactive)
same,GI50,[40],> 100 µM (inactive)
same,GI50,[41],> 100 µM (inactive)
same,GI50,[42],> 100 µM (inactive)
same,GI50,[43],> 100 µM (inactive)
same,GI50,[44],> 100 µM (inactive)
same,GI50,[45],45.2 µM (inactive)
same,GI50,[46],> 100 µM (inactive)
same,GI50,[47],> 100 µM (inactive)
Cc1cc2c(=O)cc(-c3ccc(Cl)cc3)oc2c(C(=O)O)c1C,GI50,[1],> 100 µM (inactive)
same,GI50,[48],> 100 µM (inactive)
same,GI50,[2],> 100 µM (inactive)
same,GI50,[49],> 100 µM (inactive)
same,GI50,[3],> 100 µM (inactive)
same,GI50,[4],> 100 µM (inactive)
same,GI50,[5],> 100 µM (inactive)
same,GI50,[6],> 100 µM (inactive)
same,GI50,[7],> 100 µM (inactive)
same,GI50,[8],> 100 µM (inactive)
same,GI50,[10],> 100 µM (inactive)
same,GI50,[11],> 100 µM (inactive)
same,GI50,[12],> 100 µM (inactive)
same,GI50,[13],> 100 µM (inactive)
same,GI50,[14],> 100 µM (inactive)
same,GI50,[16],> 100 µM (inactive)
same,GI50,[17],> 100 µM (inactive)
same,GI50,[18],29.5 µM (inactive)
same,GI50,[19],> 100 µM (inactive)
same,GI50,[20],> 100 µM (inactive)
same,GI50,[21],> 100 µM (inactive)
same,GI50,[22],> 100 µM (inactive)
same,GI50,[50],> 100 µM (inactive)
same,GI50,[51],> 100 µM (inactive)
same,GI50,[23],> 100 µM (inactive)
same,GI50,[24],> 100 µM (inactive)
same,GI50,[52],> 100 µM (inactive)
same,GI50,[53],> 100 µM (inactive)
same,GI50,[25],> 100 µM (inactive)
same,GI50,[26],> 100 µM (inactive)
same,GI50,[27],> 100 µM (inactive)
same,GI50,[28],> 100 µM (inactive)
same,GI50,[29],> 100 µM (inactive)
same,GI50,[30],> 100 µM (inactive)
same,GI50,[54],> 100 µM (inactive)
same,GI50,[31],> 100 µM (inactive)
same,GI50,[32],> 100 µM (inactive)
same,GI50,[33],> 100 µM (inactive)
same,GI50,[34],> 100 µM (inactive)
same,GI50,[35],> 100 µM
same,GI50,[55],> 100 µM (inactive)
same,GI50,[36],> 100 µM (inactive)
same,GI50,[37],> 100 µM (inactive)
same,GI50,[38],> 100 µM (inactive)
same,GI50,[39],> 100 µM (inactive)
same,GI50,[40],> 100 µM (inactive)
same,GI50,[56],> 100 µM (inactive)
same,GI50,[41],> 100 µM (inactive)
same,GI50,[43],> 100 µM (inactive)
same,GI50,[44],> 100 µM (inactive)
same,GI50,[45],> 100 µM (inactive)
same,GI50,[46],> 100 µM (inactive)
same,GI50,[47],> 100 µM (inactive)
c1ccc2c(CN3CCC(C4CCN(Cc5cccc6ccccc56)CC4)CC3)cccc2c1,GI50,[1],1.92 µM (inactive)
same,GI50,[49],38.3 µM (inactive)
same,GI50,[3],5.74 µM (inactive)
same,GI50,[5],2.09 µM (inactive)
same,GI50,[6],1.72 µM (inactive)
same,GI50,[7],5.64 µM (inactive)
same,GI50,[9],1.98 µM (inactive)
same,GI50,[11],21.1 µM (inactive)
same,GI50,[12],6.73 µM (inactive)
same,GI50,[57],14.7 µM (inactive)
same,GI50,[13],23.7 µM (inactive)
same,GI50,[17],4.22 µM (inactive)
same,GI50,[18],12.9 µM (inactive)
same,GI50,[21],2.81 µM (inactive)
same,GI50,[50],5.7 µM (inactive)
same,GI50,[58],1.09 µM (active)
same,GI50,[23],3.66 µM (inactive)
same,GI50,[52],11.9 µM (inactive)
same,GI50,[27],6.64 µM (inactive)
same,GI50,[28],2.64 µM (inactive)
same,GI50,[29],39.7 µM (inactive)
same,GI50,[30],12.2 µM (inactive)
same,GI50,[54],16 µM (inactive)
same,GI50,[31],6.21 µM (inactive)
same,GI50,[32],2.4 µM (inactive)
same,GI50,[33],7.64 µM (inactive)
same,GI50,[34],19 µM (inactive)
same,GI50,[55],2.1 µM (inactive)
same,GI50,[36],3.11 µM (inactive)
same,GI50,[38],11.3 µM (inactive)
same,GI50,[39],17.7 µM (inactive)
same,GI50,[40],36.1 µM (inactive)
same,GI50,[43],1.53 µM (inactive)
same,GI50,[44],40.1 µM (inactive)
same,GI50,[45],4.75 µM (inactive)
same,GI50,[47],> 63 µM (inactive)
O=C1C=CC(=C(c2ccc(O)cc2)c2ccc(O)cc2)C=C1 [AURIN],GI50,[1],13.3 µM (inactive)
same,GI50,[48],18.2 µM (inactive)
same,GI50,[2],2.39 µM (inactive)
same,GI50,[49],22 µM (inactive)
same,GI50,[3],3.18 µM (inactive)
same,GI50,[4],10.8 µM (inactive)
same,GI50,[5],10.3 µM (inactive)
same,GI50,[6],17.7 µM (inactive)
same,GI50,[7],3.91 µM (inactive)
same,GI50,[8],13.2 µM (inactive)
same,GI50,[9],2.86 µM (inactive)
same,GI50,[10],17 µM (inactive)
same,GI50,[11],17.9 µM (inactive)
same,GI50,[12],6.78 µM (inactive)
same,GI50,[57],20.2 µM (inactive)
same,GI50,[13],5.11 µM (inactive)
same,GI50,[14],13.6 µM (inactive)
same,GI50,[15],2.07 µM (inactive)
same,GI50,[16],10 µM (inactive)
same,GI50,[17],7.06 µM (inactive)
same,GI50,[18],10.1 µM (inactive)
same,GI50,[19],17.4 µM (inactive)
same,GI50,[20],15.1 µM (inactive)
same,GI50,[21],16.5 µM (inactive)
same,GI50,[22],11.3 µM (inactive)
same,GI50,[50],4.71 µM (inactive)
same,GI50,[58],14.4 µM (inactive)
same,GI50,[51],14.4 µM (inactive)
same,GI50,[23],3.85 µM (inactive)
same,GI50,[24],12.7 µM (inactive)
same,GI50,[52],5.07 µM (inactive)
same,GI50,[53],3.21 µM (inactive)
same,GI50,[25],15.6 µM (inactive)
same,GI50,[26],12.1 µM (inactive)
same,GI50,[59],2.36 µM (inactive)
same,GI50,[28],2.4 µM (inactive)
same,GI50,[29],7 µM (inactive)
same,GI50,[30],15 µM (inactive)
same,GI50,[54],13.6 µM (inactive)
same,GI50,[31],3.88 µM (inactive)
same,GI50,[32],12 µM (inactive)
same,GI50,[33],12.5 µM (inactive)
same,GI50,[34],15.8 µM (inactive)
same,GI50,[35],14.4 µM
same,GI50,[55],9.68 µM (inactive)
same,GI50,[36],18.6 µM (inactive)
same,GI50,[37],15.2 µM (inactive)
same,GI50,[38],5.82 µM (inactive)
same,GI50,[39],19 µM (inactive)
same,GI50,[40],15.2 µM (inactive)
same,GI50,[56],12.8 µM (inactive)
same,GI50,[41],12.5 µM (inactive)
same,GI50,[42],17.7 µM (inactive)
same,GI50,[43],2.94 µM (inactive)
same,GI50,[44],16.4 µM (inactive)
same,GI50,[45],11.7 µM (inactive)
same,GI50,[46],8.57 µM (inactive)
same,GI50,[47],8.47 µM (inactive)
